# Key:
# Format in all cases: functional
# [1] = test system: HOP-62; assay: Growth inhibition of human HOP62 cells after 48 hrs by SRB staining method; settings: HOP-62, 48 h
# [2] = test system: NCI-H23; assay: Growth inhibition of human NCI-H23 cells after 48 hrs by SRB staining method; settings: NCI-H23, 48 h
# [3] = test system: NCI-H322M; assay: Growth inhibition of human NCI-H322M cells after 48 hrs by SRB staining method
# [4] = test system: NCI-H460; assay: Growth inhibition of human NCI-H460 cells after 48 hrs by SRB staining method; settings: NCI-H460, 48 h
# [5] = test system: NCI-H522; assay: Growth inhibition of human NCI-H522 cells after 48 hrs by SRB staining method; settings: NCI-H522, 48 h
# [6] = test system: HCT-116; assay: Growth inhibition of human HCT116 cells after 48 hrs by SRB staining method; settings: HCT-116, 48 h
# [7] = test system: HCT-15; assay: Growth inhibition of human HCT15 cells after 48 hrs by SRB staining method; settings: HCT-15, 48 h
# [8] = test system: KM12; assay: Growth inhibition of human KM12 cells after 48 hrs by SRB staining method; settings: KM12, 48 h
# [9] = test system: SF-295; assay: Growth inhibition of human SF295 cells after 48 hrs by SRB staining method; settings: SF-295, 48 h
# [10] = test system: U-251; assay: Growth inhibition of human U251 cells after 48 hrs by SRB staining method; settings: U-251, 48 h
# [11] = test system: LOX IMVI; assay: Growth inhibition of human LOX IMVI cells after 48 hrs by SRB staining method
# [12] = test system: M14; assay: Growth inhibition of human M14 cells after 48 hrs by SRB staining method; settings: M14, 48 h
# [13] = test system: SK-MEL-5; assay: Growth inhibition of human SK-MEL-5 cells after 48 hrs by SRB staining method; settings: SK-MEL-5, 48 h
# [14] = test system: UACC-257; assay: Growth inhibition of human UACC257 cells after 48 hrs by SRB staining method; settings: UACC-257, 48 h
# [15] = test system: UACC-62; assay: Growth inhibition of human UACC62 cells after 48 hrs by SRB staining method; settings: UACC-62, 48 h
# [16] = test system: OVCAR-3; assay: Growth inhibition of human OVCAR-3 cells after 48 hrs by SRB staining method; settings: OVCAR-3, 48 h
# [17] = test system: OVCAR-4; assay: Growth inhibition of human OVCAR4 cells after 48 hrs by SRB staining method; settings: OVCAR-4, 48 h
# [18] = test system: OVCAR-5; assay: Growth inhibition of human OVCAR5 cells after 48 hrs by SRB staining method; settings: OVCAR-5, 48 h
# [19] = test system: OVCAR-8; assay: Growth inhibition of human OVCAR8 cells after 48 hrs by SRB staining method; settings: OVCAR-8, 48 h
# [20] = test system: SK-OV-3; assay: Growth inhibition of human SKOV3 cells after 48 hrs by SRB staining method; settings: SK-OV-3, 48 h
# [21] = test system: 786-0; assay: Growth inhibition of human 786-0 cells after 48 hrs by SRB staining method; settings: 786-0, 48 h
# [22] = test system: RXF 393; assay: Growth inhibition of human RXF393 cells after 48 hrs by SRB staining method; settings: RXF 393, 48 h
# [23] = test system: SN12C; assay: Growth inhibition of human SN12C cells after 48 hrs by SRB staining method
# [24] = test system: TK-10; assay: Growth inhibition of human TK10 cells after 48 hrs by SRB staining method; settings: TK-10, 48 h
# [25] = test system: DU-145; assay: Growth inhibition of human DU145 cells after 48 hrs by SRB staining method; settings: DU-145, 48 h
# [26] = test system: MCF7; assay: Growth inhibition of human MCF7 cells after 48 hrs by SRB staining method; settings: MCF7, 48 h
# [27] = test system: NCI/ADR-RES; assay: Growth inhibition of human NCI/ADR-RES cells after 48 hrs by SRB staining method
# [28] = test system: MDA-MB-435; assay: Growth inhibition of human MDA-MB-435 cells after 48 hrs by SRB staining method; settings: MDA-MB-435, 48 h
# [29] = test system: SF-268; assay: Growth inhibition of human SF268 cells after 48 hrs by SRB staining method; settings: SF-268, 48 h
# [30] = test system: HL-60; assay: Growth inhibition of human HL60 cells after 48 hrs by SRB staining method; settings: HL-60, 48 h
# [31] = test system: SR; assay: Growth inhibition of human SR cells after 48 hrs by SRB staining method
# [32] = test system: EKVX; assay: Growth inhibition of human EKVX cells after 48 hrs by SRB staining method
# [33] = read-out: pLC50 (the source's name) (converted)
structure (smiles),measurement,setting,value
COc1cc(Nc2nc3cc(N)cc(N)c3nc2-c2ccccc2)cc(OC)c1OC,GI50,[1],16.2 µM
same,LC50,[1],72.4 µM
same,TGI,[1]; read-out: pTGI (converted),34.7 µM
same,GI50,[2],25.1 µM
same,LC50,[2],> 100 µM
same,TGI,[2]; read-out: pTGI (converted),75.9 µM
same,LC50,[3],> 100 µM
same,GI50,[4],17 µM
same,LC50 (concentration killing 50% of cells),[4],> 100 µM
same,TGI,[4]; read-out: pTGI (converted),52.5 µM
same,GI50,[5],18.2 µM
same,LC50,[5],> 100 µM
same,TGI,[5]; read-out: pTGI (converted),53.7 µM
same,GI50,[6],15.5 µM
same,LC50,[6],75.9 µM
same,TGI,[6]; read-out: pTGI (converted),33.9 µM
same,GI50,[7],15.1 µM
same,LC50,[7],> 100 µM
same,TGI,[7]; read-out: pTGI (converted),45.7 µM
same,GI50,[8],10.7 µM
same,LC50,[8],81.3 µM
same,TGI,[8]; read-out: pTGI (converted),29.5 µM
same,GI50,[9],15.8 µM
same,LC50,[9],> 100 µM
same,TGI,[9]; read-out: pTGI (converted),42.7 µM
same,GI50,[10],24.5 µM
same,LC50 (50% lethal concentration),[10],> 100 µM
same,TGI,[10]; read-out: pTGI (converted),> 100 µM
same,GI50,[11],18.6 µM
same,LC50,[11],> 100 µM
same,TGI,[11]; read-out: pTGI (converted),49 µM
same,GI50,[12],19.5 µM
same,LC50,[12],> 100 µM
same,TGI,[12]; read-out: pTGI (converted),44.7 µM
same,GI50,[13],12.9 µM
same,LC50,[13],58.9 µM
same,TGI,[13]; read-out: pTGI (converted),27.5 µM
same,GI50,[14],29.5 µM
same,LC50,[14],> 100 µM
same,TGI,[14]; read-out: pTGI (converted),> 100 µM
same,GI50,[15],13.5 µM
same,LC50,[15],74.1 µM
same,TGI,[15]; read-out: pTGI (converted),31.6 µM
same,GI50,[16],14.1 µM
same,LC50,[16],97.7 µM
same,TGI,[16]; read-out: pTGI (converted),37.2 µM
same,GI50,[17],0.0316 µM
same,LC50,[17],25.7 µM
same,TGI,[17]; read-out: pTGI (converted),0.891 µM
same,GI50,[18],21.4 µM
same,LC50,[18],> 100 µM
same,TGI,[18]; read-out: pTGI (converted),46.8 µM
same,GI50,[19],15.5 µM
same,CC50,[19]; [33],79.4 µM
same,TGI,[19]; read-out: pTGI (converted),34.7 µM
same,GI50,[20],22.9 µM
same,CC50,[20]; [33],> 100 µM
same,TGI,[20]; read-out: pTGI (converted),57.5 µM
same,GI50,[21],14.5 µM
same,CC50,[21]; [33],> 100 µM
same,TGI,[21]; read-out: pTGI (converted),40.7 µM
same,GI50,[22],14.5 µM
same,CC50,[22]; [33],83.2 µM
same,TGI,[22]; read-out: pTGI (converted),34.7 µM
same,GI50,[23],20.4 µM
same,CC50,[23]; [33],> 100 µM
same,TGI,[23]; read-out: pTGI (converted),83.2 µM
same,GI50,[24],24 µM
same,CC50,[24]; [33],> 100 µM
same,TGI,[24]; read-out: pTGI (converted),66.1 µM
same,GI50,[25],21.9 µM
same,CC50,[25]; [33],> 100 µM
same,TGI,[25]; read-out: pTGI (converted),74.1 µM
same,GI50,[26],25.7 µM
same,CC50,[26]; [33],> 100 µM
same,TGI,[26]; read-out: pTGI (converted),95.5 µM
same,GI50,[27],14.5 µM
same,CC50,[27]; [33],> 100 µM
same,TGI,[27]; read-out: pTGI (converted),43.7 µM
same,GI50,[28],7.41 µM
same,CC50,[28]; [33],69.2 µM
same,TGI,[28]; read-out: pTGI (converted),24.5 µM
same,GI50,[29],18.2 µM
same,CC50,[29]; [33],> 100 µM
same,TGI,[29]; read-out: pTGI (converted),60.3 µM
same,GI50,[30],6.61 µM
same,CC50,[30]; [33],64.6 µM
same,TGI,[30]; read-out: pTGI (converted),23.4 µM
same,GI50,[31],3.31 µM
same,CC50,[31]; [33],72.4 µM
same,TGI,[31]; read-out: pTGI (converted),15.8 µM
same,GI50,[32],17.8 µM
same,CC50,[32]; [33],> 100 µM
same,TGI,[32]; read-out: pTGI (converted),47.9 µM

# Reference: ChEMBL document CHEMBL1149774, “Synthesis of N-(5,7-diamino-3-phenyl-quinoxalin-2-yl)-3,4,5-substituted anilines and N-[4[(5,7-diamino-3-phenylquinoxalin-2-yl)amino]benzoyl]-l-glutamic acid diethyl ester: evaluation of in vitro anti-cancer and anti-folate activities” (Eur J Med Chem, 2008)
